Assay results from patent publication US7378535B2, “Production of furanones” (Unisearch Limited, A.C.N., priority 1998, dated 2008).

- melting point: 100 °C
Compound: CC(O)C1=CC(=C(Br)Br)OC1=O (stereo not shown) [Example 7, 5-(Dibromomethylene)-3-(1-hydroxyethyl)-2(5H)-furanone]
